Tested on: HIV
Test: Inhibition of HIV proliferation in CEM cells
Type: cell-based
Conditions: 1 µM (0.6 µg/ml) of the test compound, 1 week
Protocol: CEM cells were inoculated in growth medium as defined in a) above, to a density of 2 x 10⁴ cells/ml. The inoculum was then seeded with a similar volume of serial 1 : 3 dilutions of the viral stock [a filtered preparation of the 48-hour culture supernatant of Molt4/HTLVIIIB cells prepared as described in Test Example 3 a) above]. The seeded inoculum was then cultured at 37°C under a 5% carbon dioxide atmosphere in the presence of 1 µM of the test compound (compound no. 14). After 1 week, the culture was spun down and the supernatant was collected. HIV antigen in the supernatant was determined as described in b) above.

(2S,3S)-[3-(N-3′-Hydroxyquinoxaline-2′-carbonyl-L-asparaginyl)amino-2-hydroxy-4-phenylbutyryl]-L-proline t-butyl ester [Compound No. 14]
spread of HIV (HIV antigen in the supernatant): sufficient to block the spread of HIV almost completely

Source: patent EP0498680A1, “New beta-amino-alpha-hydroxycarboxylic acids and their use” (Sankyo Company Limited, priority 1991, dated 1992)
